Test results reported in patent publication US8378104B2 (OSI Pharmaceuticals, LLC, priority 2010, dated 2013).
pIC50: −log10 of the molar value. Where a name gives a salt, the structure may show the parent alone.

Target: T1, TAK1-TAB1 fusion protein (Homo sapiens, UniProt O43318)
T1 construct: purchased Carna
T1 sequence (O43318 with tags, fused parts or gaps limits assumed): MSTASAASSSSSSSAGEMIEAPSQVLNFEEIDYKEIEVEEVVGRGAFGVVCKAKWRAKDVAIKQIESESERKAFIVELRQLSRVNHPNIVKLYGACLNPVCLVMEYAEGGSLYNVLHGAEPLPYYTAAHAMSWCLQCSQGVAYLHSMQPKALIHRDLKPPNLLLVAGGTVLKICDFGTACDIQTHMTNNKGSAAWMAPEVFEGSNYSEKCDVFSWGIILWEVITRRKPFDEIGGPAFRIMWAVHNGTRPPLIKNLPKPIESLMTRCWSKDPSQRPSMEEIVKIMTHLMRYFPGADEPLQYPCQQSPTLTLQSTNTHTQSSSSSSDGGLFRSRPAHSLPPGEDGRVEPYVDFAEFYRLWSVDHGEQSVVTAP
Assay: TAK1 biochemical assay (AlphaScreen, GST-MAP2K7 substrate)
Conditions: TAK1-TAB1 fusion protein, GST-MAP2K7 substrate; read-out: mean TAK1 IC50 (Col. A)

pIC50 | Structure (SMILES)
6.00 to 7.00 | CNc1ncc(-c2cnn(C3CCN(C(C)=O)CC3)c2)c2cc(-c3cccc4cnsc34)oc12 [Example 279, 1-(4-{4-[2-(1,2-benzothiazol-7-yl)-7-(methylamino)furo[2,3-c]pyridin-4-yl]-1H-pyrazol-1-yl}piperidin-1-yl)ethanone trifluoroacetate]
5.00 to 6.00 | Nc1ncc(-c2cnn(CCO)c2)c2cc(-c3cccc4cnccc34)oc12 [Example 67, 2-{4-[7-amino-2-(isoquinolin-5-yl)furo[2,3-c]pyridin-4-yl]-1H-pyrazol-1-yl}ethanol]
5.00 to 6.00 | Cc1nc(C)c(-c2cnc(N)c3oc(-c4csc5cnccc45)cc23)s1 [Example 394, 4-(2,4-dimethyl-thiazol-5-yl)-2-thieno[2,3-c]pyridin-3-yl-furo[2,3-c]pyridin-7-ylamine]
6.00 to 7.00 | Nc1ncc(-c2cnn([C@H]3CC[C@H](O)CC3)c2)c2cc(-c3ccc4c(c3)C(=O)NC4)oc12 [Example 403, 6-{7-amino-4-[1-(trans-4-hydroxycyclohexyl)-1H-pyrazol-4-yl]furo[2,3-c]pyridin-2-yl}-2,3-dihydro-1H-isoindol-1-one]
5.00 to 6.00 | Nc1ncc(-c2cscn2)c2cc(-c3csc4cnccc34)oc12 [Example 396, 4-thiazol-4-yl-2-thieno[2,3-c]pyridin-3-yl-furo[2,3-c]pyridin-7-ylamine]
6.00 to 7.00 | Nc1ncc(-c2cnn(CCO)c2)c2cc(-c3csc4cnccc34)oc12 [Example 319, 2-[4-(7-amino-2-thieno[2,3-d]pyridin-3-yl-furo[2,3-d]pyridin-4-yl)-pyrazol-1-yl]-ethanol]
5.00 to 6.00 | Cc1nc(-c2cnc(N)c3oc(-c4csc5cnccc45)cc23)cs1 [Example 390, 4-(2-methyl-1,3-thiazol-4-yl)-2-(thieno[2,3-c]pyridin-3-yl)furo[2,3-c]pyridin-7-amine trifluoroacetate]
5.00 to 6.00 | CC(=O)N1CCC(n2cc(-c3cnc(N)c4oc(-c5coc6ccccc56)cc34)cn2)CC1 [Example 220, 1-(4-{4-[7-amino-2-(1-benzofuran-3-yl)furo[2,3-c]pyridin-4-yl]-1H-pyrazol-1-yl}piperidin-1-yl)ethanone bis(trifluoroacetate)]
< 5.00 | Cn1cc(-c2cnc(N)c3oc(-c4ccccc4)cc23)cn1 [Example 56, 4-(1-methyl-1H-pyrazol-4-yl)-2-phenylfuro[2,3-d]pyridin-7-amine]
< 5.00 | CC(=O)N1CCC(n2cc(-c3cnc(N)c4oc(-c5cccc(OCC(C)C)c5)cc34)cn2)CC1 [Example 204, 1-[4-(4-{7-amino-2-[3-(2-methylpropoxy)phenyl]furo[2,3-c]pyridin-4-yl}-1H-pyrazol-1-yl)piperidin-1-yl]ethanone]
5.00 to 6.00 | CN(C)c1nc2cccc(-c3cc4c(-c5cnn([C@H]6CC[C@H](O)CC6)c5)cnc(N)c4o3)c2s1 [Example 371, trans-4-(4-{7-amino-2-[2-(dimethylamino)-1,3-benzothiazol-7-yl]furo[2,3-c]pyridin-4-yl}-1H-pyrazol-1-yl)cyclohexanol Trifluoroacetate (Salt)]
5.00 to 6.00 | CC(=O)N1CCC(n2cc(-c3cnc(N)c4oc(-c5csc6cncc(Cl)c56)cc34)cn2)CC1 [Example 255]
5.00 to 6.00 | CC(=O)N1CCC(n2cc(-c3cnc(N)c4oc(-c5cccc6ccncc56)cc34)cn2)CC1 [Example 190, 1-(4-{4-[7-amino-2-(isoquinolin-8-yl)furo[2,3-c]pyridin-4-yl]-1H-pyrazol-1-yl}piperidin-1-yl)ethanone]
5.00 to 6.00 | CSc1nc2cccc(-c3cc4c(-c5cnn([C@H]6CC[C@H](O)CC6)c5)cnc(N)c4o3)c2s1 [Example 353, trans-4-(4-{7-amino-2-[2-(methylsulfanyl)-1,3-benzothiazol-7-yl]furo[2,3-c]pyridin-4-yl}-1H-pyrazol-1-yl)cyclohexanol Trifluoroacetate (Salt)]
6.00 to 7.00 | N#Cc1cc(-c2cc3c(-c4cnn([C@H]5CC[C@H](O)CC5)c4)cnc(N)c3o2)ccc1N [Example 407, 2-amino-5-{7-amino-4-[1-(trans-4-hydroxycyclohexyl)-1H-pyrazol-4-yl]furo[2,3-c]pyridin-2-yl}benzonitrile]
5.00 to 6.00 | CC(=O)N1CCC(n2cc(-c3cnc(N)c4oc(-c5ccc(N)c(C)c5)cc34)cn2)CC1 [Example 140, 1-(4-{4-[7-amino-2-(4-amino-3-methylphenyl)furo[2,3-c]pyridin-4-yl]-1H-pyrazol-1-yl}piperidin-1-yl)ethanone]
5.00 to 6.00 | Nc1ncc(-c2cnn(C3CCNCC3)c2)c2cc(-c3cncc4ccccc34)oc12 [Example 34, 2-(isoquinolin-4-yl)-4-[1-(piperidin-4-yl)-1H-pyrazol-4-yl]furo[2,3-c]pyridine-7-amine]
5.00 to 6.00 | Nc1ncc(-c2cnn(C3CCNCC3)c2)c2c(Cl)c(-c3cccc4cnccc34)oc12 [Example 16, 3-chloro-2-(isoquinoolin-5-yl)-4-[1-(piperidin-4-yl)-1H-pyrazol-4-yl]furo[2,3-c]pyridin-7-amine]
5.00 to 6.00 | Nc1ncc(-c2cnn([C@H]3CC[C@H](O)CC3)c2)c2cc(-c3c(F)ccc4ncsc34)oc12 [Example 359, trans-4-{4-[7-amino-2-(6-fluoro-1,3-benzothiazol-7-yl)furo[2,3-c]pyridin-4-yl]-1H-pyrazol-1-yl}cyclohexanol]
< 5.00 | Nc1ncc(-c2cnn([C@H]3CC[C@H](O)CC3)c2)c2cc(-c3cc(C(F)(F)F)cc(C(F)(F)F)c3)oc12 [Example 401, trans-4-(4-{7-amino-2-[3,5-bis(trifluoromethyl)phenyl]furo[2,3-d]pyridin-4-yl}-1H-pyrazol-1-yl)cyclohexanol]
< 5.00 | CC(=O)N1CCC(n2cc(-c3cnc(N)c4oc(-c5cccc(OCc6ccccc6Cl)c5)cc34)cn2)CC1 [Example 166, 1-{4-[4-(7-amino-2-{3-[(2-chlorobenzyl)oxy]phenyl}furo[2,3-c]pyridin-4-yl)-1H-pyrazol-1-yl]piperidin-1-yl}ethanone]
5.00 to 6.00 | Nc1ncc(-c2cnn([C@H]3CC[C@H](O)CC3)c2)c2cc(-c3ccc4c(c3)CC(=O)N4)oc12 [Example 405, 5-{7-amino-4-[1-(trans-4-hydroxycyclohexyl)-1H-pyrazol-4-yl]furo[2,3-c]pyridin-2-yl}-1,3-dihydro-2H-indol-2-one]
5.00 to 6.00 | Cn1ncc2cccc(-c3cc4c(-c5cnn([C@H]6CC[C@H](O)CC6)c5)cnc(N)c4o3)c21 [Example 357, trans-4-{4-[7-amino-2-(1-methyl-1H-indazol-7-yl)furo[2,3-c]pyridin-4-yl]-1H-pyrazol-1-yl}cyclohexanol]
6.00 to 7.00 | Nc1ncc(-c2cnn(C3CC=CC3)c2)c2cc(-c3cccc4cnccc34)oc12 [Example 72, 4-[1-(cyclopent-3-en-1-yl)-1H-pyrazol-4-yl]-2-(isoquinolin-5-yl)furo[2,3-c]pyridin-7-amine]
5.00 to 6.00 | CCOc1cccc(-c2cc3c(-c4cnn(C5CCN(C(C)=O)CC5)c4)cnc(N)c3o2)c1 [Example 162, 1-(4-{4-[7-amino-2-(3-ethoxyphenyl)furo[2,3-c]pyridin-4-yl]-1H-pyrazol-1-yl}piperidin-1-yl)ethanone]

Structure (SMILES) | pIC50
CC(=O)N1CCC(n2cc(-c3cnc(N)c4oc(-c5cccc(OCCC(C)C)c5)cc34)cn2)CC1 [Example 208, 1-[4-(4-{7-amino-2-[3-(3-methylbutoxy)phenyl]furo[2,3-c]pyridin-4-yl}-1H-pyrazol-1-yl)piperidin-1-yl]ethanone] | < 5.00
